Laboratory results from US10670605B2, “Cysteine reactive probes and uses thereof” (The Scripps Research Institute, priority 2015, dated 2020).

How the values were obtained:
Assay in all cases: Competitive isoTOP-ABPP in situ (fragment-treated cells)
Type in all cases: cell-based
[1] = molecular target: T1, cysteines in MDA-MB-231 and Ramos cells (Homo sapiens, UniProt Q9BQ69)
T1 sequence (Q9BQ69 1-325): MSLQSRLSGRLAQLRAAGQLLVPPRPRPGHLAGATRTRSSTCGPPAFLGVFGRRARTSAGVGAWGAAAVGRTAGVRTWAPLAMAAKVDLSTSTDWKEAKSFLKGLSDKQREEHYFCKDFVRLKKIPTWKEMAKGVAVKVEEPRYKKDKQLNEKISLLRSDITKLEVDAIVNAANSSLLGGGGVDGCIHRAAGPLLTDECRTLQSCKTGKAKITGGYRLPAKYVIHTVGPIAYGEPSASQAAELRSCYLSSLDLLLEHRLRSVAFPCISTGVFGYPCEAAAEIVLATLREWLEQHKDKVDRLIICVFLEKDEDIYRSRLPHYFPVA

[2] = molecular target: cysteines in MDA-MB-231 and Ramos cells (Homo sapiens, UniProt P83731)
[3] = molecular target: T2, cysteines in MDA-MB-231 and Ramos cells (Homo sapiens, UniProt P57764)
T2 sequence (P57764 1-484): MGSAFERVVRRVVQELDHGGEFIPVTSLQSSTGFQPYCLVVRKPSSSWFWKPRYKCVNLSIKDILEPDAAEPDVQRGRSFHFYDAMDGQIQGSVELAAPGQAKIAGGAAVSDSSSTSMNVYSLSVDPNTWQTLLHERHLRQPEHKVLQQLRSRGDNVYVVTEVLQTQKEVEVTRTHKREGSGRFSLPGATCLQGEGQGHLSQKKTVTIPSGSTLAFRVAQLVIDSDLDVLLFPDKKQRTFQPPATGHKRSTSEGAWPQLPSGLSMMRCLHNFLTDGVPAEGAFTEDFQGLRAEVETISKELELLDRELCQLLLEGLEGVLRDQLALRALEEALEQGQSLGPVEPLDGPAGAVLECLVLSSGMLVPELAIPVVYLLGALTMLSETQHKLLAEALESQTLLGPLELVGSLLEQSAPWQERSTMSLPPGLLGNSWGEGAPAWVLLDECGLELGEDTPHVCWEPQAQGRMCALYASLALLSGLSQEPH

[4] = molecular target: cysteines in MDA-MB-231 and Ramos cells (Homo sapiens, UniProt Q8TAQ2)
cysteines in MDA-MB-231 and Ramos cells (Homo sapiens, UniProt Q8TAQ2), sequence (Q8TAQ2 whole entry): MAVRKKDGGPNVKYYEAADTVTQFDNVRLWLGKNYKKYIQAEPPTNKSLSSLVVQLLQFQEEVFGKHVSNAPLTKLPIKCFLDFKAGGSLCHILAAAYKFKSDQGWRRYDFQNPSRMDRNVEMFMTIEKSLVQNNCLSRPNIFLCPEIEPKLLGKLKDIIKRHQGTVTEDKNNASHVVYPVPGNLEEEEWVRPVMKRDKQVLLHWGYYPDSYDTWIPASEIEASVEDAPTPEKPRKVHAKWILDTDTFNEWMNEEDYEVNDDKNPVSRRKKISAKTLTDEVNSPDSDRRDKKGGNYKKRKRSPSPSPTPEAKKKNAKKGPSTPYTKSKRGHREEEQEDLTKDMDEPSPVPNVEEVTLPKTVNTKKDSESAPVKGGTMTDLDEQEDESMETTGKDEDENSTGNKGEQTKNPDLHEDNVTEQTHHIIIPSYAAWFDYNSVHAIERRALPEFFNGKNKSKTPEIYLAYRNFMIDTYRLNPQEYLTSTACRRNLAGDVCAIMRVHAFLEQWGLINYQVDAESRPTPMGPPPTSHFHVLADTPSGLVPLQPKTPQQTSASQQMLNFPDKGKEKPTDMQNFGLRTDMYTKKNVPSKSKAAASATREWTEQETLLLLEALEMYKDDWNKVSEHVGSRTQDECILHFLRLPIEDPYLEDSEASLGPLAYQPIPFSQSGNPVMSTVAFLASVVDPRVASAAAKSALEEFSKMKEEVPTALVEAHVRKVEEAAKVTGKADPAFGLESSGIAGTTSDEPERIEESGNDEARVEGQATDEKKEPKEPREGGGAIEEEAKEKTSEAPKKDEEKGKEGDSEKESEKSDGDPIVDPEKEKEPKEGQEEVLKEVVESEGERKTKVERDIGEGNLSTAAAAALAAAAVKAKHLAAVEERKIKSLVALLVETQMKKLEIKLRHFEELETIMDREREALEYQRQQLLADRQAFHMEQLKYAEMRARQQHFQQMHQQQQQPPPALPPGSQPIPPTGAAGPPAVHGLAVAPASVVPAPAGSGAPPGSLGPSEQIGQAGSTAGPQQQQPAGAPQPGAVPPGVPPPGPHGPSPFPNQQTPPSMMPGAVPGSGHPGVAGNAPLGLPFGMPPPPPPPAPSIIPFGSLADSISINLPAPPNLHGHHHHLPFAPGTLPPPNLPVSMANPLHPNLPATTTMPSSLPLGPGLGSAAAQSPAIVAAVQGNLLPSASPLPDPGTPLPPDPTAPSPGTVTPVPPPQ

[5] = molecular target: T3, cysteines in MDA-MB-231 and Ramos cells (Homo sapiens, UniProt Q9NQW6)
T3 sequence (Q9NQW6 1-1124): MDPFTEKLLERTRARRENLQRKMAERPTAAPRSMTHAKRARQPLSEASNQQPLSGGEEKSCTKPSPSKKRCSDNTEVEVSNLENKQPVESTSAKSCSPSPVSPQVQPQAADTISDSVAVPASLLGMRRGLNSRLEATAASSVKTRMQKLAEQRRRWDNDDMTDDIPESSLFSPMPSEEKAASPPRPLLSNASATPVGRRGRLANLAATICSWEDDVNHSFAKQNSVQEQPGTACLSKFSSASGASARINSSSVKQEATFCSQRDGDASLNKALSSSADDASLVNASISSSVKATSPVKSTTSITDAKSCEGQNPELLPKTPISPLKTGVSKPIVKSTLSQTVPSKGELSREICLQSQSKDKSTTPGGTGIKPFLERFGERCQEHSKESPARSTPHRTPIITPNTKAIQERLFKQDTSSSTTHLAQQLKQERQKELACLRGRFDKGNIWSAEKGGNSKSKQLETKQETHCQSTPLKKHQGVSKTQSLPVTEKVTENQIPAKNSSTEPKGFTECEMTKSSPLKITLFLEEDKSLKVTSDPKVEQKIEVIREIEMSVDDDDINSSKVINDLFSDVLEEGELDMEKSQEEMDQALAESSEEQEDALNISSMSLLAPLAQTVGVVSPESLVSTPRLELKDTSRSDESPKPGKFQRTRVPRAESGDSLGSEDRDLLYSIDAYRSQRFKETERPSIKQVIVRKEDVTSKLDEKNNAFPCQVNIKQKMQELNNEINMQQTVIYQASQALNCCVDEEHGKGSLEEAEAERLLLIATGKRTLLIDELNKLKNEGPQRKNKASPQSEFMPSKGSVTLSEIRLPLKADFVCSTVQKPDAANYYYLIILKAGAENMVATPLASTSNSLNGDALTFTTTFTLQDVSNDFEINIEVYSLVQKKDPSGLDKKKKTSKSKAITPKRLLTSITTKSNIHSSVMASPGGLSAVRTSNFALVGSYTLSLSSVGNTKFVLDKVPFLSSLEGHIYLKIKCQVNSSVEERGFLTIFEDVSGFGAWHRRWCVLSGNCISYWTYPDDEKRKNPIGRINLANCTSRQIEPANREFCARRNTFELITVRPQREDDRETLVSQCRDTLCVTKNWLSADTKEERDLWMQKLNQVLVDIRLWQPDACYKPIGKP

[6] = molecular target: T4, cysteines in MDA-MB-231 and Ramos cells (Homo sapiens, UniProt P11216)
T4 sequence (P11216 1-843): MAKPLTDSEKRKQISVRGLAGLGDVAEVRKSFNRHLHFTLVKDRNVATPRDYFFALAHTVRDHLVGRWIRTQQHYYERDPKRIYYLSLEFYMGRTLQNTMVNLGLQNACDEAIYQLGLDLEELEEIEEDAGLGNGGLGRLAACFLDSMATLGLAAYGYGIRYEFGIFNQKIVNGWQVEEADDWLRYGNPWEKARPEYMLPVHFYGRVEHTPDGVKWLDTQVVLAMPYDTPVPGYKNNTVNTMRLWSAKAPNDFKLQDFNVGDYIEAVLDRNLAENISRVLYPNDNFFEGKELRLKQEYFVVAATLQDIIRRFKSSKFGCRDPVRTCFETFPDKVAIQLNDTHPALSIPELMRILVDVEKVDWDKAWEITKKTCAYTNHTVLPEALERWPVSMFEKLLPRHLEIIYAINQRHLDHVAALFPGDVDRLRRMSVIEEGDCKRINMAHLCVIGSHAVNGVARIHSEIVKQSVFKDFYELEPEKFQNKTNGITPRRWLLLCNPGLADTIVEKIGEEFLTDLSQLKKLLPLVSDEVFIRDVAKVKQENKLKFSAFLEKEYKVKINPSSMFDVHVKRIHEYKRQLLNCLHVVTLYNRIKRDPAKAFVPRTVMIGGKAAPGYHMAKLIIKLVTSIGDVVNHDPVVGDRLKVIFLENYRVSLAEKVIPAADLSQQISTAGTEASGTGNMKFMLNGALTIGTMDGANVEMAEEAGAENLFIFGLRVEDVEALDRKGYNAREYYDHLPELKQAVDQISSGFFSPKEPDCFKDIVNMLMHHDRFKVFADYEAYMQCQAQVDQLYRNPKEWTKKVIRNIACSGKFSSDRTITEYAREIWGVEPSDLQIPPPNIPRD

SMILES | isoTOP-ABPP ratio Q9NQW6_C712 ([5]; 200 μM, insitu, 231) | isoTOP-ABPP ratio Q9BQ69_C186 ([1]; 200 μM, insitu, 231) | isoTOP-ABPP ratio P11216_C326 ([6]; 200 μM, insitu, 231) | isoTOP-ABPP ratio P83731_C6 ([2]; 200 μM, insitu, 231) | isoTOP-ABPP ratio Q8TAQ2_C145 ([4]; 200 μM, insitu, 231) | isoTOP-ABPP ratio P57764_C268 ([3]; 200 μM, insitu, 231) | further results
COc1ccc2c(c1)CCCN2C(=O)CCl [compound 2] |  |  |  |  |  |  | isoTOP-ABPP reactivity Q9BQ69_C186 MACROD1 ([1]; 200 μM, insitu, 231): 4.8; isoTOP-ABPP reactivity P83731_C6 RPL24 ([2]; 200 μM, insitu, 231): 2.4; isoTOP-ABPP reactivity P57764_C268 GSDMD ([3]; 200 μM, insitu, 231): 20.0; isoTOP-ABPP reactivity Q8TAQ2_C145 SMARCC2 ([4]; 200 μM, insitu, 231): 4.6
COc1ccc(C2CC(c3cccs3)=NN2C(=O)CCl)cc1 (stereo not drawn) [compound 4] |  |  |  |  |  |  | isoTOP-ABPP reactivity Q9NQW6_C712 ANLN ([5]; 100 μM in situ 231): 4.1; isoTOP-ABPP reactivity Q9BQ69_C186 MACROD1 ([1]; 100 μM in situ 231): 1.8; isoTOP-ABPP reactivity P11216_C326 PYGB ([6]; 100 μM in situ 231): 1.7; isoTOP-ABPP reactivity P83731_C6 RPL24 ([2]; 100 μM in situ 231): 0.7; isoTOP-ABPP reactivity P57764_C268 GSDMD ([3]; 100 μM in situ 231): 20.0; isoTOP-ABPP reactivity Q8TAQ2_C145 SMARCC2 ([4]; 100 μM in situ 231): 3.1
COc1cc2c(cc1OC)CN(C(=O)CCl)CC2 [compound 8] |  |  |  |  |  |  | isoTOP-ABPP reactivity Q9NQW6_C712 ANLN ([5]; 200 μM, insitu, 231): 14.1; isoTOP-ABPP reactivity Q9BQ69_C186 MACROD1 ([1]; 200 μM, insitu, 231): 5.0; isoTOP-ABPP reactivity P11216_C326 PYGB ([6]; 200 μM, insitu, 231): 20.0; isoTOP-ABPP reactivity P57764_C268 GSDMD ([3]; 200 μM, insitu, 231): 8.4
O=C(CCl)N1CCC(Cc2ccccc2)CC1 [compound 9] |  |  |  |  |  |  | isoTOP-ABPP reactivity Q9NQW6_C712 ANLN ([5]; 200 μM, insitu, 231): 3.1; isoTOP-ABPP reactivity Q9BQ69_C186 MACROD1 ([1]; 200 μM, insitu, 231): 1.2; isoTOP-ABPP reactivity P11216_C326 PYGB ([6]; 200 μM, insitu, 231): 2.6; isoTOP-ABPP reactivity P83731_C6 RPL24 ([2]; 200 μM, insitu, 231): 4.3
O=C(CCl)N1CCN(S(=O)(=O)c2ccccc2F)CC1 [compound 10] | 11.2 | 2.4 | 8.6 | 0.4 |  |  | isoTOP-ABPP ratio P83731_C6 ([2]; 200 μM, insitu, ramos): 2.0; isoTOP-ABPP ratio P57764_C268 ([3]; 200 μM, insitu, ramos): 2.2; isoTOP-ABPP ratio Q8TAQ2_C145 ([4]; 200 μM, insitu, ramos): 20.0
Cn1cc(S(=O)(=O)N2CCOCC2)cc1C(=O)NC(=O)CCl [compound 11] |  |  |  |  |  |  | isoTOP-ABPP ratio Q9NQW6_C712 ([5]; 100 μM in situ 231): 0.9; isoTOP-ABPP ratio Q9BQ69_C186 ([1]; 100 μM in situ 231): 1.0; isoTOP-ABPP ratio P11216_C326 ([6]; 100 μM in situ 231): 0.8; isoTOP-ABPP ratio P83731_C6 ([2]; 100 μM in situ 231): 0.5; isoTOP-ABPP ratio P57764_C268 ([3]; 100 μM in situ 231): 0.7; isoTOP-ABPP ratio Q8TAQ2_C145 ([4]; 100 μM in situ 231): 7.6
O=C(CCl)NC(=O)NC12CC3CC(CC(C3)C1)C2 [compound 12] | 16.7 | 2.7 | 3.9 | 0.3 |  |  | 
O=C(CCl)NCCc1c[nH]c2ccccc12 [compound 13] | 1.3 | 1.4 | 1.3 | 0.7 | 1.1 |  | isoTOP-ABPP ratio P83731_C6 ([2]; 200 μM, insitu, ramos): 1.0; isoTOP-ABPP ratio P57764_C268 ([3]; 200 μM, insitu, ramos): 1.5
O=C(CCl)NC12CC3CC(CC(C3)C1)C2 [compound 21] |  | 1.4 | 0.9 | 1.0 | 1.6 | 0.7 | 
CC(C)CCOCCNC(=O)CCl [compound 27] | 1.0 | 2.4 | 0.7 | 0.4 | 2.1 | 0.6 | 
COc1ccccc1OCCNC(=O)CCl [compound 28] | 0.9 |  |  |  | 0.9 |  | 
O=C(CCl)N1CCN(CC(=O)N2CCOCC2)CC1 [compound 29] |  |  |  |  |  |  | isoTOP-ABPP ratio Q9BQ69_C186 ([1]; 200 μM, insitu, ramos): 1.5; isoTOP-ABPP ratio P83731_C6 ([2]; 200 μM, insitu, ramos): 1.6; isoTOP-ABPP ratio P57764_C268 ([3]; 200 μM, insitu, ramos): 1.1; isoTOP-ABPP ratio Q8TAQ2_C145 ([4]; 200 μM, insitu, ramos): 2.7
C=CC(=O)N(Cc1cccnc1)c1cc(C(F)(F)F)cc(C(F)(F)F)c1 [compound 31] | 0.7 | 0.5 | 0.5 |  | 0.8 |  | isoTOP-ABPP ratio P57764_C268 ([3]; 200 μM, insitu, ramos): 3.1; isoTOP-ABPP ratio Q8TAQ2_C145 ([4]; 200 μM, insitu, ramos): 1.1
C=CC(=O)Nc1cc(F)c(N2CCN(C(=O)OC(C)(C)C)CC2)c(F)c1 [compound 38] | 1.5 | 3.6 | 1.2 | 2.1 | 1.3 | 1.8 | 
Cc1ccc(C=C(C#N)C(=O)NCCN2CCOCC2)cc1 [compound 41] | 0.7 | 1.2 | 0.7 | 0.3 | 1.2 | 0.6 | 
CC1CCc2ccccc2N1C(=O)CCl (stereo not drawn) [compound 45] | 5.9 | 3.3 | 5.3 | 1.2 | 2.9 | 20.0 | 
O=C(CCl)Nc1cccc2ncccc12 [compound 51] |  | 1.2 | 0.8 |  | 1.2 | 1.8 | 
